From US11446304B2, “CDC-7-inhibitor compounds and use thereof for the treatment of neurological conditions” (CONSEJO SUPERIOR DE INVESTIGACIONES CIENTIFICAS (CSIC), priority 2017, dated 2022)

Columns and labels:
human recombinant CDC7 = biological target: T1, human recombinant CDC7 (Homo sapiens, UniProt O00311); experiment: CDC7 inhibition measurement (ADP-Glo technology); assay type: biochemical; conditions: ATP 10 μM, 60 min at room temperature; read-out: CDC7 ADP-Glo ™ CI50
T1 construct: purchased Promega V5089
T1 sequence (O00311 whole entry): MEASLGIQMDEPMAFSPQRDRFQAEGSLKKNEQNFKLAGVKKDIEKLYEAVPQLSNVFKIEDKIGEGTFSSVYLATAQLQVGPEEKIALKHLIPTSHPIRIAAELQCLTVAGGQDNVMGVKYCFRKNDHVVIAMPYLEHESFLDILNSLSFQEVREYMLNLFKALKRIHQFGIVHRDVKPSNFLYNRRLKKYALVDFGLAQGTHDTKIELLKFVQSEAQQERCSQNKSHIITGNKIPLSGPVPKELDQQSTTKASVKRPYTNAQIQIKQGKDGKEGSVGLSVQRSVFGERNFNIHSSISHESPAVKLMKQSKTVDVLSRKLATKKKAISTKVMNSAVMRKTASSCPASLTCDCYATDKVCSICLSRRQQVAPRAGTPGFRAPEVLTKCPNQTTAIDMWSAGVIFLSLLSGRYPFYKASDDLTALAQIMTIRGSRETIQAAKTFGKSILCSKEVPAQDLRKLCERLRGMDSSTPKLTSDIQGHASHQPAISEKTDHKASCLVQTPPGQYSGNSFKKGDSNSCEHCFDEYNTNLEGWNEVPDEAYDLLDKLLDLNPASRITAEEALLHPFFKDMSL
T1 sequence (Q9UBU7 whole entry partner): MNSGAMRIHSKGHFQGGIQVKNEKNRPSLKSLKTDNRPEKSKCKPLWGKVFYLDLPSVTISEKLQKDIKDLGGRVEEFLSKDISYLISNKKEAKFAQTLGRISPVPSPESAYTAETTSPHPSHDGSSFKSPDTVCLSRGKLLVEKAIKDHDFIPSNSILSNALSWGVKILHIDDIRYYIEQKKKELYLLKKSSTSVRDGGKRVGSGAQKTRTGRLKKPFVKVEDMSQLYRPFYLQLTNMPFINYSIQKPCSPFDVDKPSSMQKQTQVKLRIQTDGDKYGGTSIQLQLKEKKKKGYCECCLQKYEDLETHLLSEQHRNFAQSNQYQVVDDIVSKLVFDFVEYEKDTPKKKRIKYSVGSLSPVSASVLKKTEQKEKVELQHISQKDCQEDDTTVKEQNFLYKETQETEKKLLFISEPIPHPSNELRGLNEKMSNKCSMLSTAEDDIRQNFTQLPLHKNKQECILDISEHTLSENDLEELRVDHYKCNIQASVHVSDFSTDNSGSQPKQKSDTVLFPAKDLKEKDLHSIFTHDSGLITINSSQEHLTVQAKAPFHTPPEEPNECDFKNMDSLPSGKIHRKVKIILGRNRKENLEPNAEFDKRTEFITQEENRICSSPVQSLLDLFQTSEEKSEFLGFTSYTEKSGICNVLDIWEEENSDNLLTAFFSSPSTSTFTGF
Protocol: The method used is a non-radioactive enzyme inhibition assay using human recombinant CDC7. It is based on luminometric quantification of inhibition using the ADP-Glo™ Kinase Kit. In this test the luminescent signal correlates positively with the amount of adenosine diphosphate (ADP) and the activity of the kinase. […]
CDC7 enzyme inhibition studies were conducted using the promega kit: ADP-Glo™ Kinase Assay+CDC7/DBF4 Kinase Enzyme System (Catalogue No. V5089). ATP and other reagents were purchased in Sigma-Aldrich (St. Louis, Mo.). The trials were performed in a buffer solution using 96-well plates. The compound to be tested (5 μL, 40 μM dissolved in DMSO 4%) was added to each well followed by the enzyme (5 μL, 25 ng/well), ATP (5 μL, final concentration in well 10 μM) and PDKtidE (5 μL, 4 μg/well). It was then incubated for 60 minutes at room temperature and the reagent ADP-Glo™ (20 μL) was added and incubated again for 40 min at room temperature. After incubation, the kinase detection agent (40 μL) was added and incubated for 30 min at room temperature. Finally, the luminescence (integration time of 0.5-1 sec) was measured using a POLARstar Optima multimode reader polarimeter. Inhibition activities were calculated as a function of maximum activity, measured in the absence of inhibitor.

[1] = biological target: human recombinant CDC7/DBF4 (Homo sapiens, UniProt O00311); experiment: CDC7 inhibition measurement (LanthaScreen Eu kinase binding, FRET); conditions: CDC7/DBF4 0.5 nM, 60 min at room temperature; read-out: CDC7 Lantha ™ CI50
Sequence of human recombinant CDC7/DBF4 (O00311 whole entry): as the sequence (O00311 whole entry) above
Sequence of human recombinant CDC7/DBF4 (Q9UBU7 whole entry partner): as the sequence (Q9UBU7 whole entry partner) above
Source text: The LanthaScreen Eu kinases inhibition assay uses an Alexa marker Fluor™ that binds to a kinase and is detected by the addition of an Eu-marked antibody. The binding of the marker and the antibody to the kinase results in a high degree of FRET, while the displacement of the marker by an inhibitor results in a loss of FRET. Unlike many other kinase activity tests, this is a simple mix and read test, with no developmental stages. This test method has been developed by Life Technologies and identifies competitive ATP kinase inhibitors, making them suitable for the detection of any compound that binds to the ATP site.
The compounds are evaluated at 1% DMSO (final) in the well. A mixture of human recombinant CDC7/DBF4 (0.5 nM), Eu-antiGST antibody (2 nM) and AlexaFluor marker (1 nM) has been used in a buffer of 50 mM HEPES pH 7.5, 0.01% BRIJ-35, 10 mM MgCl2, 1 mM EGTA in white plates of […], low volume, coded (Greiner cat. #784207), 160 nL (100×100% DMSO compound), 3.84 μL (buffer with CDC7/DBF4), 8.0 μL (antibody), 4.0 μL (marker) are added. Agitate 30 s and incubate at room temperature for 60 min. Then measure the fluorescence in the plate reader and analyze the data (Table 1).

[2] = PAMPA blood-brain barrier permeation (porcine brain lipid); assay type: in vitro ADME; conditions: for Papp at 2.5 h: PAMPA-BHE, PBS pH 7.4/EtOH 70:30, 2 h 30 min at 25° C., mean ± SD, read-out: Pe; for PAMPA prediction of central nervous system (CNS) penetration: from Pe in PAMPA-BHE
Source text: An essential requirement for drugs for the treatment of neurodegenerative diseases is the ability to cross the blood-brain barrier (BBB), as otherwise they could not act on the target of interest. Therefore, for compounds that are not permeable or located in the area of uncertainty, it may be necessary to properly convey a pharmaceutical formulation through methods known to an expert in the field, such as encapsulation. This capability can be predicted in vitro using a method known by the acronym PAMPA (Parallel Artificial Membrane Permeability Assay) described by Di et al (Di, L.; Kerns, E. H.; Fan, K.; McConnell, O. J.; Carter, G. T. Eur. J. Med. Chem. 2003, 38 (3), 223-232) and which has subsequently been fine-tuned in our research group. This method allows predicting the effective permeability through artificial membranes by means of a passive diffusion process.
First of all, it is necessary to validate the method, for which 10 commercial compounds are used whose penetration capacity in the central nervous system (CNS) is known and which are to be specified below, obtaining in this case a good linear correlation between the experimental permeability values (Pe) and those described (FIG. 1). This correlation line obtained following the pattern described in the bibliography allows establishing the limits to predict whether or not a compound can cross the blood-brain barrier. Thus, a compound is considered BBB permeable (SNC+) if it has a permeability>4.48×10^−6 cm-s^−1.
For the procedure, between 3-5 mg of caffeine, desipramine, enoxacin, hydrocortisone, ofloxacin, piroxicam and testosterone, 12 mg of promazine and 25 mg of atenolol and verapamil were taken and dissolved in EtOH (1000 μL). 100 μL of these solutions were taken and EtOH (1400 μL) and phosphate buffer (PBS) pH=7.4 (3500 μL) were added in order to achieve a final EtOH concentration of 30% v/v in solution. Finally, the dissolutions were filtered.
On the other hand, a PBS/EtOH solution (70:30) was added to each well of the acceptance plate (180 μL). The donor plate was impregnated with a porcine brain lipid solution (4 μL) dissolved in dodecane (20 mg mL^−1). After 5 min, dissolution of each compound was added to this plate (180 μL).
Of the compounds 1 to 10 evaluated, 1-2 mg were taken and dissolved in EtOH (1500 μL) and phosphate buffer (PBS) pH=7.4 (3500 μL), filtered and added to the donor plate. With these solutions, the wavelengths at which the compounds absorb are determined and the initial absorbance levels at these wavelengths are measured using a UV absorbance reader. Each sample was analyzed from two to five wavelengths, in three wells and in two independent experiments.
The donor plate was then deposited on the acceptor forming a kind of “sandwich” and incubated for 2 hours and 30 minutes at 25° C. In this way, the compounds will pass from the donor plate to the acceptor plate through the porcine brain lipid by passive diffusion. After that time, the donor plate is carefully removed and the concentration and final absorbance of both commercial and synthesized compounds is determined. The results obtained are expressed as the mean of the measurements [standard deviation (SD)] of the different experiments carried out and are shown in table 2.

[3] = system: human SH-SY5Y neuroblastoma cells; experiment: Neuroprotective effect against ethacrynic acid, cell viability by MTT; assay type: cell-based; conditions: ethacrynic acid 20 μM for 12 hours, inhibitors at 10 μM, FIG. 2
Protocol: FIG. 2. […] The data represent the mean of four different±SEM experiments (*p<0.05).
The human neuroblastoma cell line SH-SY5Y was cultured at 37° C. with 5% CO2 in DMEN medium (Dulbecco's Modified Eagle Medium) enriched with L-glutamine (2 mM), 1% non-essential amino acids, 1% Penicillin/Estreptomycin and 10% fetal bobin serum. In the semiconfluence state, the cells were treated with CDC7 inhibitors (compounds 1 and 8) at different concentrations for 1.30 hours post-addition of the causative agent of TPD-43 phosphorylation; ethacrynic acid ([…]) (Sigma). […] J Immunol Methods. 1987; 89:271-7) and levels of western blot phosphorylated TDP-43 (FIG. 2).

[4] = system: TDP-43 phosphorylation (S409/410); experiment: Effect on phosphorylation of TDP-43 (western blot); assay type: cell-based, human; conditions: SH-SY5Y cells, 24 h incubation with ethacrynic acid, FIG. 3
Protocol: FIG. 3. Sample of the effect of CDC7 inhibitors (compounds 1, 8, 9 and 13) on TDP-43 phosphorylation. Quantification and representation of phosphorylated TDP-43 levels by western blot.
To evaluate the levels of TDP-43 phosphorylated in the presence of CDC7 inhibitors (compounds 1 and 8), the cells after 24 h of incubation with ethacrylic acid were washed with PBS and then cold lysed with lysis buffer (50 mM Tris pH 7.4, 150 mM NaCl, 50 mM NaF, 1% Nonidet P-40 and Protease and phosphatase inhibitors (Roche)). The collected cell extracts were centrifuged for 10 minutes at 4,000 rpm. Protein quantification was performed with the Pierce BCA protein assay kit (Thermo Scientific). 10 μg of protein were loaded into the polyacrylamide gel with SDS and subsequently transferred to a polyvinylidene fluoride (PVDF) membrane (Millipore).

IC50 (human recombinant CDC7) [nM]	IC50 [1] [nM]	Papp at 2.5 h [2] [×10⁻⁶ cm/s]	melting point [°C]	Structure (SMILES)	PAMPA prediction of central nervous system (CNS) penetration [2]	neuroprotective effect (cell viability) [3]	phosphorylated TDP-43 levels [4]
6740 ± 350	125	6.2 ± 1.1		c1ccc(CSc2ncnc3[nH]cnc23)cc1 [Compound 1, 6-(benzylthio)-9H-purine]	SNC+ (a compound is considered BBB permeable (SNC+) if it has a permeability>4.48×10^−6 cm-s^−1)	neuroprotective effect	reduce phosphorylation of TDP-43
5210 ± 380	172	15.1 ± 0.6	167 to 169	Clc1cccc(CSc2ncnc3[nH]cnc23)c1 [Compound 8, 6-((3-Chlorobenzyl)thio)-9H-purine]	SNC+ (a compound is considered BBB permeable (SNC+) if it has a permeability>4.48×10^−6 cm-s^−1)	neuroprotective effect	reduce phosphorylation of TDP-43
3340 ± 270	86	13.8 ± 2.5	185 to 187	Ic1cccc(CSc2ncnc3[nH]cnc23)c1 [Compound 9, 6-((3-Iodobenzyl)thio)-9H-purine]	SNC+ (a compound is considered BBB permeable (SNC+) if it has a permeability>4.48×10^−6 cm-s^−1)	neuroprotective effect	
6240 ± 990	275	13.1 ± 0.1	209 to 211	Brc1ccccc1CSc1ncnc2[nH]cnc12 [Compound 13, 6-((2-bromobenzyl)thio)-9H-purine]	SNC+ (a compound is considered BBB permeable (SNC+) if it has a permeability>4.48×10^−6 cm-s^−1)	neuroprotective effect	
